# Test results published in patent publication US20120142584A1, “NOVEL TRANSPORTER CONSTRUCTS AND TRANSPORTER CARGO CONJUGATE MOLECULES” (priority 2008, published 2012).
# Test: digestion of TAT derived transporter constructs in 10% and 50% human serum at 37° C.
# Conditions: 10% and 50% human serum at 37° C. until complete degradation
# Experimental: The table shown in FIG. 2 illustrates the amino acid sequences of these TAT derived transporter constructs with respect to their molecular weight (Mw) and pl-values (see FIG. 2). • The digestion was carried out in 10% and 50% human serum at 37° C. until complete degradation of these TAT derived transporters construct.
smiles,measurement,value
N=C(N)NCCC[C@H](NC(=O)[C@H](CCCNC(=N)N)NC(=O)[C@H](CCCNC(=N)N)NC(=O)[C@H](CCC(N)=O)NC(=O)[C@H](CCCNC(=N)N)NC(=O)[C@H](CCCNC(=N)N)NC(=O)[C@H](CCCCN)NC(=O)[C@H](CCCCN)NC(=O)[C@@H](N)CCCNC(=N)N)C(=O)O [L-TAT],degradation in human serum,degraded too early
